Laboratory results: US20240360143A1, “[1,2,4]TRIAZOLO[4,3-A]PYRIMIDIN-7(8H)-ONE AS MITOCHONDRIAL PYRUVATE CARRIER INHIBITORS FOR USE IN THE TREATMENT OF CANCER” (MPC THERAPEUTICS SA, priority 2021, published 2024)

Tests used:
B16-OVA melanoma = assay: Adoptive cell transfer of compound-treated OT1 CD8 T cells in B16-OVA melanoma tumor model; format: in vivo, mouse
Procedure: Activated CD45.1+OT-1 splenocytes were culture in vitro for 7 days as described above, collected and purified on a Ficoll gradient, allowing to separate dead and live splenocytes. Live splenocytes were counted with Trypan blue stain 0.4%. 100′000 or 2′000′000 live splenocytes were transferred into CD45.2+ host mice by tail vein injection.
B16-OVA cells were cultured in DMEM (GIBCO) with 10% FBS and 1% P/S before their subcutaneous injection into the mouse flank. Each mouse received 100′000 cells in a volume of 200 μl of PBS. 6 days after B16-OVA cells injection, tumors were measured, mice were randomized and lymphodepleted by irradiation (5 Gray). 7 days after B16-Ova injection, mice were adoptively transferred with the ACT protocol described previously. Following the ACT, mice received a vaccination of CpG (50 μg/mouse) and N4 Ova peptide (10 μg/mouse) diluted in PBS to obtain a total volume of 100 μl/mouse, injected subcutaneously at the tail base. Tumors were measured every 2 days and the tumor volume was calculated according to the formula: V=π×[d2×D]/6, where d is the minor tumor axis and D is the major tumor axis. At day 26 days post-tumor engraftment, tumors and spleens were dissected were then stained for flow cytometry analyses.
Briefly, 105 ovalbumin-expressing B16 melanoma cells were injected subcutaneously in 6-week-old mice. At day 6 post-engraftment, when a palpable tumor was present, mice were irradiated with 5Gy. The next day 105 Compound 45- or DMSO-treated OT1 cells were intravenously injected, followed by a subcutaneous vaccination of 50 μg CpG and 10 μg N4 Ova peptide (FIG. 2A). […] When analysing the blood 9 days post-adoptive cell transfer, one could observe an increase in number of transferred cells when treated in vitro with Compound 45 as compared to DMSO (FIG. 2D). The phenotype of the Compound 45-treated cells was biased towards memory, as there was a reduced percentage of short-lived effector T cells (FIG. 2E) and an increase in memory-precursor effector T cells and cells with a central memory phenotype (FIGS. 2F and 2G). When analysing the tumor upon dissection, more Compound 45-treated T cells were infiltrating the tumor (FIG. 2H).
In order to observe a stronger anti-tumor response of the transferred OT1 T cells, the previous experiment was repeated by transferring 2×10^6 DMSO- or Compound 45-treated OT1 T cells, instead of only 10^5 (FIG. 3A). […] When analysing the tumor upon dissection, no difference in T cell infiltration was observed (FIG. 3D). […] There was however no difference in terminally exhausted or progenitor exhausted T cells (FIGS. 3F and 3G). […] There was no difference in CD107a expression (FIG. 3O).

[1] = molecular target: T1, mitochondrial pyruvate carrier (MPC) (Homo sapiens, UniProt O95563+Q9Y5U8); assay: Seahorse Xfe24 pyruvate-dependent OCR in HeLa cells; format: cell-based; details: pyruvate-dependent OCR in presence of fCCP
T1 sequence (Q9Y5U8 1-109): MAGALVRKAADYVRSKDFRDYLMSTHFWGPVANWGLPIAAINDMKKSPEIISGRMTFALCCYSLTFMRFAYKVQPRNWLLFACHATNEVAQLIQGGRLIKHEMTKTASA
T1 sequence (O95563 1-127): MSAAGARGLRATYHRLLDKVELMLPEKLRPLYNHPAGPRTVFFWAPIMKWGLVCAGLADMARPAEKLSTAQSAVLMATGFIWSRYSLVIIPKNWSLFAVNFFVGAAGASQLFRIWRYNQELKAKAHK
Procedure: The inhibition of mitochondrial pyruvate carrier (MPC) by compounds of the invention have been tested as follows and their inhibitory activity was expressed as IC50s values.
Cells are plated in the customized Seahorse plates. For HeLa cells, seeding is at 4×10^4 cells/well in […] DMEM, 10% FBS, 1% pen/strep/glutamine. 3 wells are left blank (medium alone) for internal calibration. The assay cartridge is hydrated overnight at 37° C. in 1 ml/well XF Calibrant Solution.
Since 50 μl of compound of the invention will be injected into 450 μl washed cells, compounds are made up in assay medium at 10× the final desired concentration
For dose response analyses, compounds are tested at final concentrations 30, 5, 0.83, 0.14, 0.023 μM (1:6 serial dilutions from […])
Positive control: […] (the parent hit compound which gave rise to the actual series)
Negative control: Assay medium alone.
The seahorse reagent plate is prepared as follows and transfered to the Xfe24 analyser for the calibration step:
The medium is almost completely removed from the well without allowing cells to dry Cells are washed twice with 300 μl Assay Medium. 450 μl fresh Assay Medium is added to each well. The plate is transferred to the Xfe24 analyser for measurement of pyruvate-dependent OCR. All values are normalized to the initial basal respiration rate in each well which is measured prior to addition of compounds and designated as 100%. IC50 determination is based on the average of the 3 measurements made in the presence of fCCP, taking 30 μM parent hit compound as maximal inhibition and PBS/Ca/Mg as zero inhibition.

`O=c1cc(Cc2ccccc2)n2c(SCc3c(F)cccc3Cl)nnc2[nH]1` [Compound 45, 5-benzyl-3-[(2-chloro-6-fluorobenzyl)sulfanyl][1,2,4]triazolo[4,3-a]pyrimidin-7 (8H)-one] was tested, and the “number of treated T cells in the spleen” value (B16-OVA melanoma; 2×10^6 cells, spleen (FIG. 3H)) was “decreased”, the “central memory phenotype in the spleen” value (B16-OVA melanoma; 2×10^6 cells, spleen (FIG. 3I)) was “increased” and the “TCF1 expression in the spleen” value (B16-OVA melanoma; 2×10^6 cells, spleen (FIG. 3J)) was “trend towards increased”. The “terminally exhausted T cells” value (B16-OVA melanoma; 2×10^6 cells, tumor (FIG. 3F)) was “no difference”, the “progenitor exhausted T cells” value (B16-OVA melanoma; 2×10^6 cells, tumor (FIG. 3G)) was “no difference” and the IFNy expression (B16-OVA melanoma; 2×10^6 cells, tumor cells restimulated with OVA peptide (FIG. 3K)) was “did not show difference”. The TNF expression (B16-OVA melanoma; 2×10^6 cells, tumor cells restimulated with OVA peptide (FIG. 3L)) was “did not show difference”, the IL2 expression (B16-OVA melanoma; 2×10^6 cells, tumor cells restimulated with OVA peptide (FIG. 3M)) was “did not show difference” and the “Granzyme B expression” value (B16-OVA melanoma; 2×10^6 cells, tumor cells restimulated with OVA peptide (FIG. 3N)) was “increased”. For the same compound, the CD107a expression (B16-OVA melanoma; 2×10^6 cells, tumor cells restimulated with OVA peptide (FIG. 3O)) was “no difference”, the “T cell infiltration in tumor” value (B16-OVA melanoma; 2×10^6 cells, tumor upon dissection (FIG. 3D)) was “no difference” and the “exhausted tumor infiltrating T cells” value (B16-OVA melanoma; 2×10^6 cells, vs DMSO (FIG. 3E)) was “more exhausted”. For the same compound, the B16 tumor growth (B16-OVA melanoma; 2×10^6 treated OT1 cells transferred, vs DMSO (FIG. 3B)) was “strongly reduced”, the B16 tumor weight (B16-OVA melanoma; 2×10^6 treated OT1 cells, vs DMSO (FIG. 3C)) was “strongly reduced” and the “percentage of short-lived effector T cells” value (B16-OVA melanoma; 10^5 cells, blood 9 days post-ACT (FIG. 2E)) was “reduced”. The “memory-precursor effector T cells” value (B16-OVA melanoma; 10^5 cells, blood 9 days post-ACT (FIG. 2F)) was “increase”, the “cells with a central memory phenotype” value (B16-OVA melanoma; 10^5 cells, blood 9 days post-ACT (FIG. 2G)) was “increase” and the “number of transferred cells in blood” value (B16-OVA melanoma; 10^5 cells, blood 9 days post-ACT, vs DMSO (FIG. 2D)) was “increase”. The “number of treated T cells in the spleen” value (B16-OVA melanoma; 10^5 cells, spleen (FIG. 2L)) was “increased”, the “central memory phenotype in the spleen” value (B16-OVA melanoma; 10^5 cells, spleen (FIG. 2M)) was “increased” and the “TCF1 expression in the spleen” value (B16-OVA melanoma; 10^5 cells, spleen (FIG. 2N)) was “not significantly altered”. For the same compound, the IFNy expression (B16-OVA melanoma; 10^5 cells, tumor cells restimulated with OVA peptide (FIG. 2O)) was “did not show a significant increase”, the TNF expression (B16-OVA melanoma; 10^5 cells, tumor cells restimulated with OVA peptide (FIG. 2P)) was “did not show a significant increase” and the IL2 expression (B16-OVA melanoma; 10^5 cells, tumor cells restimulated with OVA peptide (FIG. 2Q)) was “did not show a significant increase”. The “Granzyme B expression” value (B16-OVA melanoma; 10^5 cells, tumor cells restimulated with OVA peptide (FIG. 2R)) was “did not show a significant increase”, the “expression of CD107a (LAMP1)” value (B16-OVA melanoma; 10^5 cells, tumor cells restimulated with OVA peptide (FIG. 2S)) was “increased” and the “treated T cells infiltrating the tumor” value (B16-OVA melanoma; 10^5 cells, tumor upon dissection (FIG. 2H)) was “more”. The “exhausted tumor infiltrating T cells” value (B16-OVA melanoma; 10^5 cells, vs DMSO (FIG. 2I)) was “not significantly more or less exhausted”, the B16 tumor growth (B16-OVA melanoma; 10^5 treated OT1 cells transferred, vs DMSO (FIG. 2B)) was “reduced” and the Tumor weight (B16-OVA melanoma; 10^5 treated OT1 cells, vs DMSO (FIG. 2C)) was “not significantly reduced”. The IC50 [1] was 64 nM.
